# Measurements reported in patent US10294227B2, “Compounds” (UNIVERSITY COURT OF THE UNIVERSITY OF EDINBURGH, priority 2015, dated 2019).
# Like-named read-outs stand apart in the source and are kept apart here.
# Legend:
# MDA-MB-231 cells = experiment: Cell viability assay (PrestoBlue); assay type: cell-based; conditions: Homo sapiens, MDA-MB-231, 120 h, read-out: Antiproliferative activity (EC50) MDA-MB-231; cell viability at day 5
# MCF7 cells = experiment: Cell viability assay (PrestoBlue); assay type: cell-based; conditions: Homo sapiens, MCF7, 120 h; cell viability at day 5; read-out: Antiproliferative activity (EC50) MCF7
# FRK/PTK5 = FRK/PTK5 (Homo sapiens (Human), UniProt P42685); experiment: Kinase screening assay (IC50); conditions: read-out: Target inhibition (IC50) FRK/PTK5; 10 μM ATP
# RET = RET (Homo sapiens (Human), UniProt P07949); experiment: Kinase screening assay (IC50); conditions: read-out: Target inhibition (IC50) RET; 10 μM ATP
# ABL = ABL (Homo sapiens (Human), UniProt P00519); experiment: Kinase screening assay (IC50); assay type: biochemical; conditions: 10 μM ATP; read-out: Target inhibition (IC50) ABL
# PDGFRa = PDGFRa (Homo sapiens (Human), UniProt P16234); experiment: Kinase screening assay (IC50); assay type: biochemical; conditions: 10 μM ATP; read-out: Target inhibition (IC50) PDGFRa
# KIT = KIT (Homo sapiens (Human), UniProt P10721); experiment: Kinase screening assay (IC50); conditions: read-out: Target inhibition (IC50) KIT; 10 μM ATP
# FGR = FGR (Homo sapiens (Human), UniProt P09769); experiment: Kinase screening assay (IC50)
# LCK = LCK (Homo sapiens (Human), UniProt P06239); experiment: Kinase screening assay (IC50)
# mTOR = mTOR (Homo sapiens (Human), UniProt P42345); experiment: Kinase screening assay (IC50); assay type: biochemical; conditions: 10 μM ATP; read-out: Target inhibition (IC50) mTOR
# [1] = system: SYF fibroblasts (deficient for Src, Yes, and Fyn); experiment: Cell viability assay (PrestoBlue); assay type: cell-based, murine; conditions: Mus musculus, Fibroblast, 120 h; cell viability at day 5; read-out: Antiproliferative activity (EC50) SYF (−/− Src)
# LYN = LYN (Homo sapiens (Human), UniProt P07948); experiment: Kinase screening assay (IC50); conditions: read-out: Target inhibition (IC50) LYN; 10 μM ATP
# HCK = HCK (Homo sapiens (Human), UniProt P08631); experiment: Kinase screening assay (IC50); conditions: read-out: Target inhibition (IC50) HCK; 10 μM ATP
# BLK = BLK (Homo sapiens (Human), UniProt P51451); experiment: Kinase screening assay (IC50); conditions: read-out: Target inhibition (IC50) BLK; 10 μM ATP
# [2] = read-out: Target inhibition (IC50) LCK, 10 μM ATP
# Sequence of LYN (P07948 whole entry): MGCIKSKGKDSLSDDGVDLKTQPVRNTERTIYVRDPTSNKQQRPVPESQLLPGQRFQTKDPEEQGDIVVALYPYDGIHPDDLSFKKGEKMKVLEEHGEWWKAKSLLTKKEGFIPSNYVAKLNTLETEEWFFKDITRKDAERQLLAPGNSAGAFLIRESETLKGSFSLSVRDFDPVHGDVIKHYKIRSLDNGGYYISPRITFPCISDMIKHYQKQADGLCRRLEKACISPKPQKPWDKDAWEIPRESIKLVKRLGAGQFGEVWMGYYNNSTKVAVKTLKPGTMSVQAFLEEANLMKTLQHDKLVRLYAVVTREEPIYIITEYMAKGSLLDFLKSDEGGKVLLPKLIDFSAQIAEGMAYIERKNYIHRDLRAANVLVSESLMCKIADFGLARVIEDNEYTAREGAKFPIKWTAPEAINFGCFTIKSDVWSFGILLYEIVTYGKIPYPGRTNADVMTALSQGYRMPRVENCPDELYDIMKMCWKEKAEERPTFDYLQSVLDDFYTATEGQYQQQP
# Sequence of FRK/PTK5 (P42685 whole entry): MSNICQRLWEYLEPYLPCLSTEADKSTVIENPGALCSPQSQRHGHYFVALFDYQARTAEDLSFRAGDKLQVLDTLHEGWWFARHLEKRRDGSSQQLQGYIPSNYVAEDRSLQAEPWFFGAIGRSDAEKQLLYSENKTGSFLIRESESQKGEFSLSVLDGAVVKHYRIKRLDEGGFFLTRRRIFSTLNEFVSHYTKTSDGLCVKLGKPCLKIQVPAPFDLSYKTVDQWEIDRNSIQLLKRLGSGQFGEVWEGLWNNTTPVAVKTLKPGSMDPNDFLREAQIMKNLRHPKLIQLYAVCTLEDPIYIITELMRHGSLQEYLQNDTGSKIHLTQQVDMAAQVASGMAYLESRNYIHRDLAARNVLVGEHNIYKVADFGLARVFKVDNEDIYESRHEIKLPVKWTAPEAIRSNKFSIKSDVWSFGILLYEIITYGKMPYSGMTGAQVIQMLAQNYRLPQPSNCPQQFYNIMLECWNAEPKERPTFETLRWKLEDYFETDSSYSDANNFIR
# Sequence of RET (P07949 29-1114): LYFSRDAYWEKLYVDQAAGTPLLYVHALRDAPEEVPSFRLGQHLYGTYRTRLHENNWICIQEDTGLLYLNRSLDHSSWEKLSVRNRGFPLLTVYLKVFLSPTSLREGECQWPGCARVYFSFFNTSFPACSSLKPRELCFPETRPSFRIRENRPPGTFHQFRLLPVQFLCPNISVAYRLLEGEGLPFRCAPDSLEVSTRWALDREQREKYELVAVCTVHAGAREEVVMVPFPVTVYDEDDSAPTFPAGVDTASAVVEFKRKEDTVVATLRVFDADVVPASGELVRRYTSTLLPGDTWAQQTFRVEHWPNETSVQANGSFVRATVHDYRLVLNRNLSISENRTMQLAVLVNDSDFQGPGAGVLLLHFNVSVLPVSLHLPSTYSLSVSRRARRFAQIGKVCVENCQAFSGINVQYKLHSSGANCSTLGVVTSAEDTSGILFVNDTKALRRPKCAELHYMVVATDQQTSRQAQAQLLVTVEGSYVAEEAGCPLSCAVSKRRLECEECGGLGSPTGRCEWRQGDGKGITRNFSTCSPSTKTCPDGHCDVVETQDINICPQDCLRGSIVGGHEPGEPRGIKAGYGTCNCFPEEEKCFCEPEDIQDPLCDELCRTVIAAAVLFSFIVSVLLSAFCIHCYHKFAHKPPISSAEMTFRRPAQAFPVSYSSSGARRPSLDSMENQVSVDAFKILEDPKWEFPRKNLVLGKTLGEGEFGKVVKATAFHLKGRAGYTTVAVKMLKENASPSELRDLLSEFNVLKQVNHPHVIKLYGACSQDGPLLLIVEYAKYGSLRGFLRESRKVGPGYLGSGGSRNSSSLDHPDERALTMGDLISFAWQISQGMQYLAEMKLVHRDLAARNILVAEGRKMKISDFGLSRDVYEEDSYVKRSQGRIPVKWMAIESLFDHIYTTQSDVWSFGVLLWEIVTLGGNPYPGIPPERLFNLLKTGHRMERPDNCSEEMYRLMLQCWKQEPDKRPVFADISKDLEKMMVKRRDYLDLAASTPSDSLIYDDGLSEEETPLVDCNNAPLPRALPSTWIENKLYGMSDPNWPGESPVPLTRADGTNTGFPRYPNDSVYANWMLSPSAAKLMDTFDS
# Sequence of HCK (P08631 whole entry): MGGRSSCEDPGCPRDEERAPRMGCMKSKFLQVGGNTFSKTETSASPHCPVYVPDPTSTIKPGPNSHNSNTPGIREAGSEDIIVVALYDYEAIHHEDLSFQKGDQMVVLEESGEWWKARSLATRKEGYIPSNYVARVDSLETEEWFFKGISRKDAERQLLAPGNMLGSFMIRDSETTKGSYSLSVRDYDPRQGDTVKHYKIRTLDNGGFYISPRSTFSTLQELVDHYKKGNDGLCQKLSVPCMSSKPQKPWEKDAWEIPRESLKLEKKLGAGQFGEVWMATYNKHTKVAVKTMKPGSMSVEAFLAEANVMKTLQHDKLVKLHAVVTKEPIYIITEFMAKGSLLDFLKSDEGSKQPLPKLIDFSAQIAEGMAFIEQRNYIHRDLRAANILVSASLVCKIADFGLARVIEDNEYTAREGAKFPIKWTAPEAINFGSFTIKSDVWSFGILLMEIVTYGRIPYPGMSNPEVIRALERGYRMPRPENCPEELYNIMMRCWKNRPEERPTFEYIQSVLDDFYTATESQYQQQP
# Sequence of PDGFRa (P16234 24-1089): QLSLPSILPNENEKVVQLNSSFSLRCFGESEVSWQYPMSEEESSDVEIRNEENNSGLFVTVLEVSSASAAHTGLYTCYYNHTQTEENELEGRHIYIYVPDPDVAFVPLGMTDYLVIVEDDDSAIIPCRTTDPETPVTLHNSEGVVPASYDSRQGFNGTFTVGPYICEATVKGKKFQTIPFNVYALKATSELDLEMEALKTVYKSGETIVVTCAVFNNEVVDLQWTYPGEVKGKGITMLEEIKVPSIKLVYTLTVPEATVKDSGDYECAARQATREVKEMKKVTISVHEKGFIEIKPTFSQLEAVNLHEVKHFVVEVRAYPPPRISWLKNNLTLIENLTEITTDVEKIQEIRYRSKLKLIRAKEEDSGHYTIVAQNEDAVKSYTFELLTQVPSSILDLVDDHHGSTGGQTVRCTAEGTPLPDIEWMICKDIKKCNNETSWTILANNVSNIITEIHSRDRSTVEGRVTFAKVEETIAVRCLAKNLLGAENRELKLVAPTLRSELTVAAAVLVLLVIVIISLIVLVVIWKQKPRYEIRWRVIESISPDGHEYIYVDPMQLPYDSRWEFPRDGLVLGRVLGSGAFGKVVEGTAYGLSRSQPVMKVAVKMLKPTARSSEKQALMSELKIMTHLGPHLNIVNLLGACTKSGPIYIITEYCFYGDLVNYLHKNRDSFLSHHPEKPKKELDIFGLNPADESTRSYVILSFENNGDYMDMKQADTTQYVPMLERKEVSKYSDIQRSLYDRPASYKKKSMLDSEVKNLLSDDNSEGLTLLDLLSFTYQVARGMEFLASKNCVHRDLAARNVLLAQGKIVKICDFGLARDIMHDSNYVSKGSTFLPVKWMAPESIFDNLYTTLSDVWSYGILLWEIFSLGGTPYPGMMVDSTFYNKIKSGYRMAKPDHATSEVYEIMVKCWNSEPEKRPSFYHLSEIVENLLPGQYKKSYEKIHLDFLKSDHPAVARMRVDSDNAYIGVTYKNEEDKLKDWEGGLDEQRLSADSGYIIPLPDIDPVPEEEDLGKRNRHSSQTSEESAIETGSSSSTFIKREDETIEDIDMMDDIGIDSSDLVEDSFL
# Sequence of BLK (P51451 whole entry): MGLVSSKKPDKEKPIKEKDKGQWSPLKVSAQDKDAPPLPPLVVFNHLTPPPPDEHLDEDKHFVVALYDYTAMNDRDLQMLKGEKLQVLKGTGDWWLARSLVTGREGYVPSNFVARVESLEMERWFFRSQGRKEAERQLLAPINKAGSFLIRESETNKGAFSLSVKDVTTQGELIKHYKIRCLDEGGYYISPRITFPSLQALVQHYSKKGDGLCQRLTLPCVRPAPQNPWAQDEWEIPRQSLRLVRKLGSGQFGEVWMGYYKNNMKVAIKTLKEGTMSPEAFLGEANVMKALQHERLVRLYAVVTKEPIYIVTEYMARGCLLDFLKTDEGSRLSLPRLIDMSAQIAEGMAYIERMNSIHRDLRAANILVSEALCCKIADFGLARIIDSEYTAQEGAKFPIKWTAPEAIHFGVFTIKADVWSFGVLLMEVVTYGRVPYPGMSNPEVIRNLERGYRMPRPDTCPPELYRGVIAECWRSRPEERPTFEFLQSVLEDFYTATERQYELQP
# Sequence of LCK (P06239 whole entry): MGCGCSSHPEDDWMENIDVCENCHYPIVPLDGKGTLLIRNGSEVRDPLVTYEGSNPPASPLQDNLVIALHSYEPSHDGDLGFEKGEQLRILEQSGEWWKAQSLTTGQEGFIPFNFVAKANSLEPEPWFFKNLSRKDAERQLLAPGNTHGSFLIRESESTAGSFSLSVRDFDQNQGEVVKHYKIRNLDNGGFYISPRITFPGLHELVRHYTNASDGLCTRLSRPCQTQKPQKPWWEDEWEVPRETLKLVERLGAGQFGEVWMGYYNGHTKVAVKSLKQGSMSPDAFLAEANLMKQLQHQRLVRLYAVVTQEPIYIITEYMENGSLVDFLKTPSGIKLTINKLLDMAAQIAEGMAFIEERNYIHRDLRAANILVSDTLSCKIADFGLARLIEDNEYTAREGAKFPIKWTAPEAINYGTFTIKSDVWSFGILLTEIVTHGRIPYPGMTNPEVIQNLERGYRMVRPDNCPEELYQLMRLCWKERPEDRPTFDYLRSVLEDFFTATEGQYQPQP
Compound,EC50 (MDA-MB-231 cells) [nM],EC50 (MCF7 cells) [nM],IC50 (PDGFRa) [nM],IC50 (KIT) [nM],IC50 (mTOR) [nM],also measured
"CN(C)C1CCN(CCn2nc(-c3ccc(CC#N)cc3)c3c(N)ncnc32)CC1 [Compound 5-100, 2-[4-[4-amino-1-[2-[4-(dimethylamino)-1-piperidyl]ethyl]pyrazolo[3,4-d]pyrimidin-3-yl]phenyl]acetonitrile]",> 10000,–,–,–,–,–
"CN(C)CC1CCN(CCn2nc(-c3ccc4ncccc4c3)c3c(N)ncnc32)CC1 [Compound 223, 1-[2-[4-(dimethylaminomethyl)-1-piperidyl]ethyl]-3-(6-quinolyl)pyrazolo[3,4-d]pyrimidin-4-amine]",–,> 10000,–,–,–,–
"COc1cc(-c2nn(CCN3CCC(OC)CC3)c3ncnc(N)c23)ccc1NC(=O)OC(C)(C)C [Compound 593, tert-butyl N-[4-[4-amino-1-[2-(4-methoxy-1-piperidyl)ethyl]pyrazolo[3,4-d]pyrimidin-3-yl]-2-methoxy-phenyl]carbamate]",1000 to 10000,–,–,–,–,–
"CN(C)C1CCN(CCn2nc(-c3ccc(NC(=O)OC(C)(C)C)nc3)c3c(N)ncnc32)CC1 [Compound 549, tert-butyl N-[5-[4-amino-1-[2-[4-(dimethylamino)-1-piperidyl]ethyl]pyrazolo[3,4-d]pyrimidin-3-yl]-2-pyridyl]carbamate]",> 10000,> 10000,–,–,–,–
"COc1cc(-c2nn(CCN3CCC(N(C)C)CC3)c3ncnc(N)c23)ccc1NC(=O)CC(C)(C)C [Compound 526, N-[4-[4-amino-1-[2-[4-(dimethylamino)-1-piperidyl]ethyl]pyrazolo[3,4-d]pyrimidin-3-yl]-2-methoxy-phenyl]-3,3-demethyl-butanamide]",–,–,> 1000,> 1000,> 1000,IC50 (FRK/PTK5): > 1000 nM; IC50 (RET): > 1000 nM; IC50 (ABL): > 1000 nM; IC50 (FGR): 10 to 100 nM; IC50 (LCK): 10 to 100 nM
"CN(C)CC1CCN(CCn2nc(-c3cnc4[nH]ccc4c3)c3c(N)ncnc32)CC1 [Compound 221, 1-[2-[4-(dimethylaminomethyl)-1-piperidyl]ethyl]-3-(1H-pyrrolo[2,3-b]pyridin-5-yl)pyrazolo[3,4-d]pyrimidin-4-amine]",–,–,> 1000,> 1000,> 1000,–
"CN(C)CC1CCN(CCn2nc(-c3cccc(O)c3)c3c(N)ncnc32)CC1 [Compound 225, 3-[4-amino-1-[2-[4-(dimethylaminomethyl)-1-piperidyl]ethyl]pyrazolo[3,4-d]pyrimidin-3-yl]phenol]",–,> 10000,–,–,–,–
"COc1cc(-c2nn(CCN3CCC(N(C)C)CC3)c3ncnc(N)c23)ccc1NC(=O)NC(C)(C)C [Compound 540, 1-[4-[4-amino-1-[2-[4-(dimethylamino)-1-piperidyl]ethyl]pyrazolo[3,4-d]pyrimidin-3-yl]-2-methoxy-phenyl]-3-tert-butyl-urea]",–,–,> 1000,> 1000,> 1000,IC50 (FRK/PTK5): > 1000 nM; IC50 (RET): > 1000 nM; IC50 (FGR): 10 to 100 nM; IC50 (LCK): 10 to 100 nM
"CN(C)C1CCN(CCn2nc(-c3cccc(NC(=O)OC(C)(C)C)c3)c3c(N)ncnc32)CC1 [Compound 542, tert-butyl N-[3-[4-amino-1-[2-[4-(dimethylamino)-1-piperidyl]ethyl]pyrazolo[3,4-d]pyrimidin-3-yl]phenyl]carbamate]",> 10000,> 10000,–,–,–,EC50 [1]: > 10000 nM
"Cc1ccc(-c2nn(CCN3CCC(CCN(C)C)CC3)c3ncnc(N)c23)cc1 [Compound 113, 1-[2-[4-(2-dimethylaminoethyl)-1-piperidyl]ethyl]-3-(p-tolyl)pyrazolo[3,4-d]pyrimidin-4-amine]",–,–,> 1000,> 1000,> 1000,IC50 (LYN): > 1000 nM; IC50 (FRK/PTK5): > 1000 nM; IC50 (RET): > 1000 nM; IC50 (HCK): > 1000 nM; IC50 (FGR): 100 to 1000 nM; IC50 (LCK; [2]): > 1000 nM
"CN(C)C1CCN(CCn2nc(-c3cnc4[nH]ccc4c3)c3c(N)ncnc32)CC1 [Compound 402, 1-[2-[4-(dimethylamino)-1-piperidyl]ethyl]-3-(1H-pyrrolo[2,3-b]pyridin-5-yl)pyrazolo[3,4-d]pyrimidin-4-amine]",–,–,> 1000,> 1000,> 1000,IC50 (HCK): > 1000 nM
"COc1cc(-c2nn(CCN3CCC(N(C)C)CC3)c3ncnc(N)c23)ccc1N [Compound 532, 3-(4-amino-3-methoxy-phenyl)-1-[2-[4-(dimethylamino)-1-piperidyl]ethyl]pyrazolo[3,4-d]pyrimidin-4-amine]",1000 to 10000,1000 to 10000,–,–,–,EC50 [1]: > 10000 nM
"CN(C)CC1CCN(CCn2nc(I)c3c(N)ncnc32)CC1 [Compound 232, 1-[2-[4 (dimethylaminomethyl)-1-piperidyl]ethyl]-3-iodo-pyrazolo[3,4-d]pyrimidin-4-amine]",–,> 10000,–,–,–,–
"COc1cc(-c2nn(CCN3CCC(N(C)C)CC3)c3ncnc(N)c23)ccc1NC(=O)CCc1ccccc1 [Compound 531, N-[4-[4-amino-1-[2-[4-(dimethylamino)-1-piperidyl]ethyl]pyrazolo[3,4-d]pyrimidin-3-yl]-2-methoxy-phenyl]-3-phenyl-propanamide]",> 10000,1000 to 10000,–,–,–,EC50 [1]: > 10000 nM
Cc1ccc(-c2nn(CCN3CCN(C)CC3)c3ncnc(N)c23)cc1 [Compound 103],–,–,> 1000,> 1000,> 1000,IC50 (LYN): > 1000 nM; IC50 (FRK/PTK5): > 1000 nM; IC50 (RET): > 1000 nM; IC50 (HCK): > 1000 nM; IC50 (ABL): > 1000 nM; IC50 (BLK): > 1000 nM; IC50 (LCK; [2]): > 1000 nM
"COc1ccc(-c2nn(CCN3CCC(CN(C)C)CC3)c3ncnc(N)c23)cc1OC [Compound 224, 3-(3,4-dimethoxyphenyl)-1-[2-[4-(dimethylaminomethyl)-1-piperidyl]ethyl]pyrazolo[3,4-d]pyrimidin-4-amine]",–,> 10000,–,–,–,–
"COc1ccc(-c2nn(CCN3CCC(N(C)C)CC3)c3ncnc(N)c23)cc1NC(=O)OC(C)(C)C [Compound 559, tert-butyl N-[5-[4-amino-1-[2-[4-(dimethylamino)-1-piperidyl]ethyl]pyrazolo[3,4-d]pyrimidin-3-yl]-2-methoxy-phenyl]carbamate]",> 10000,> 10000,–,–,–,–
"COc1cc(-c2ccn(CCN3CCC(N(C)C)CC3)n2)ccc1NC(=O)OC(C)(C)C [Compound 597, tert-butyl N-[4-[1-[2-[4-(dimethylamino)-1-piperidyl]ethyl]pyrazol-3-yl]-2-methoxy-phenyl]carbamate]",> 10000,–,–,–,–,–
"Cc1ccc(-c2nn(CCN3CCN(CCN(C)C)CC3)c3ncnc(N)c23)cc1 [Compound 105, 1-[2-[4-(2-dimethylaminoethyl)piperazin-1-yl]ethyl]-3-(p-tolyl)pyrazolo[3,4-d]pyrimidin-4-amine]",–,–,> 1000,> 1000,> 1000,IC50 (FRK/PTK5): > 1000 nM; IC50 (RET): > 1000 nM; IC50 (HCK): > 1000 nM; IC50 (ABL): > 1000 nM; IC50 (BLK): > 1000 nM; IC50 (LCK; [2]): > 1000 nM
"CN(C)CC1CCN(CCn2nc(C#Cc3ccccc3)c3c(N)ncnc32)CC1 [Compound 230, 1-[2-[4-(dimethylaminomethyl)-1-piperidyl]ethyl]-3-(2-phenylethynyl)pyrazolo[3,4-d]pyrimidin-4-amine]",–,> 10000,–,–,–,–
"Cc1ccc(-c2nn(CCN3CCC(CN(C)C)CC3)c3ncnc(N)c23)cc1 [Compound 112, 1-[2-[4-(dimethylaminomethyl)-1-piperidyl]ethyl]-3-(p-tolyl)pyrazolo[3,4-d]pyrimidin-4-amine]",–,–,> 1000,> 1000,> 1000,IC50 (LYN): > 1000 nM; IC50 (FRK/PTK5): > 1000 nM; IC50 (RET): > 1000 nM; IC50 (HCK): > 1000 nM; IC50 (BLK): > 1000 nM; IC50 (LCK; [2]): > 1000 nM
"CN(C)CC1CCN(CCn2nc(-c3ccoc3)c3c(N)ncnc32)CC1 [Compound 226, 1-[2-[4-(dimethylaminomethyl)-1-piperidyl]ethyl]-3-(3-furyl)pyrazolo[3,4-d]pyrimidin-4-amine]",–,> 10000,–,–,–,–
"COc1cc(-c2nn(CCN3CCCC(N(C)C)C3)c3ncnc(N)c23)ccc1NC(=O)OC(C)(C)C (stereo not shown) [Compound 5-103, tert-butyl N-[4-[4-amino-1-[2-[3-(dimethylamino)-1-piperidyl]ethyl]pyrazolo[3,4-d]pyrimidin-3-yl]-2-methoxy-phenyl]carbamate]",1000 to 10000,–,–,–,–,–
